Key:
[1] = system: C. difficile strains 042, 308, 169, 187; test: Example 4: five CHE-beta-glucoside media with varying esculin and glucose, colony diameter and coloration strength; assay type: cell-based, Clostridium difficile; conditions: Example 4, according to medium 2
Procedure: Five media, each containing 48.10 g/l of Columbia base, 2.5 g/l of sodium taurocholate, 200 mg/l of ammoniacal iron citrate, 100 mg/l of CHE-beta-glucoside, and also an inhibitor system normally used in the media for Clostridium difficile, based on D-cycloserine, and varying concentrations of esculin and glucose (see following table):
(§1) The inoculation is carried out from precultures prepared for 48 h at 37° C. under anaerobic conditions.
(§2) A suspension in physiological saline at 0.5 McF is prepared and then the strains are inoculated using a 10 μl calibrated loop.
The readings are carried out after incubation for 24 hours at 37° C.
For Growth: • The values indicated correspond to the diameter of the colonies.
For Coloration Strength: • 1 corresponds to the presence of a clear coloration of weak strength, • 1.5 corresponds to the presence of a coloration that is intermediate between colorations 1 and 2, • 2 corresponds to the presence of a clear coloration of medium strength, • 2.5 corresponds to the presence of a coloration that is intermediate between colorations 2 and 3, • 3 corresponds to the presence of a strong coloration.

[2] = system: Clostridium difficile; test: Example 3: Colombia base media with a chromogenic beta-glucosidase substrate and 300 mg/l ammoniacal iron citrate; assay type: cell-based; set-up: key to diffusion of the coloration: *: diffusion of trie coloration; conditions: Clostridium difficile strains, 48 h; for Co = coloration / Gr = growth: Colombia base, 300 mg/l ammoniacal iron citrate
[3] = system: Clostridium difficile; test: Example 2: egg yolk base media each containing a chromogenic beta-glucosidase substrate, growth and coloration of strains; assay type: cell-based; conditions: for Co = coloration / Gr = growth: Clostridium difficile strains, 48 h, egg yolk base; for sensitivity with respect to Clostridium difficile: Example 2, 48 h
[4] = system: Other Clostridium; assay type: cell-based, Clostridium spp
[5] = system: strains other than Clostridium difficile; test: Example 5: selectivity of the medium, growth of strains other than Clostridium difficile; assay type: cell-based
Procedure: (§3) 107 strains were tested on two prototype media for C. difficile, the compositions of which are the following (per liter):
as §1, §2
(§4) The readings are carried out after incubation for 24 and 48 hours at 37° C.

[6] = system: Clostridium difficile; test: Example 5: two prototype media for C. difficile, % of strains producing a coloration; assay type: cell-based
Procedure: as §3, §1, §2, §4

[7] = substrate 300 mg/l +50 mg of ammoniacal iron citrate
[8] = substrate 300 mg/l +500 mg/l of ammoniacal iron citrate

O=c1ccc2cc(O[C@@H]3O[C@H](CO)[C@@H](O)[C@H](O)[C@H]3O)c(O)cc2o1 [esculin, esculetin-β-glucoside]
effect on the strength of the coloration [1]: positive effect

5-bromo-3-indoxyl-β-glucoside [Blue-β-glucoside]
diffusion of the coloration ([2]; Blue substrate 300 mg/l): *
Co = coloration ([2]; Blue substrate 300 mg/l): 10/10
Gr = growth ([2]; Blue substrate 300 mg/l): 10/10

OC[C@H]1O[C@@H](Oc2cccc3cccnc23)[C@H](O)[C@@H](O)[C@@H]1O [8-Hydroxyquinoline-β-glucoside, 8-hydroxyquinoline-β-glucoside]
Co = coloration ([2]; substrate 150 mg/l): 5/10
Gr = growth ([2]; substrate 150 mg/l): 10/10

dihydroxyflavone-β-glucoside [DHF-β-glucoside]
Co = coloration ([2]; substrate 300 mg/l): 10/10
Gr = growth ([2]; substrate 300 mg/l): 10/10
Co = coloration [3, 7]: 20/28
Gr = growth [3, 7]: 28/28
Co = coloration [4]: 3/12
Gr = growth [4]: 12/14

O=c1oc2cc(O)c(O[C@@H]3O[C@H](CO)[C@@H](O)[C@H](O)[C@H]3O)cc2c2c1CCCC2 [CHE-β-glucoside, 3,4-cyclohexenoesculetin-β-glucoside]
Co = coloration [3, 8]: 20/21
Gr = growth [3, 8]: 21/28
sensitivity with respect to Clostridium difficile [3]: good sensitivity
specificity with respect to Clostridium difficile [5]: good specificity
sensitivity with respect to Clostridium difficile ([6]; Example 5, from 24 h onward): good sensitivity
strains of Clostridium difficile revealed ([6]; from 24 h onward, with a minimum of false positives): ~90%
Co = coloration [4]: 6/17
Gr = growth [4]: 17/17

O=C1c2ccccc2C(=O)c2c1ccc(O[C@@H]1O[C@H](CO)[C@@H](O)[C@H](O)[C@H]1O)c2O [Alizarin-β-glucoside, 1,2-dihydroxyanthraquinone-β-glucoside]
Co = coloration ([2]; substrate 50 mg/l): 8/10
Gr = growth ([2]; substrate 50 mg/l): 10/10
Co = coloration ([3]; substrate 50 mg/l): 18/22
Gr = growth ([3]; substrate 50 mg/l): 22/28
sensitivity with respect to Clostridium difficile [3]: good sensitivity
Co = coloration [4]: 2/16
Gr = growth [4]: 16/17

5-bromo-6-chloro-3-indoxyl-β-glucoside [Magenta-β-glucoside]
Co = coloration ([3]; substrate 80 mg/l): 16/18
Gr = growth ([3]; substrate 80 mg/l): 18/28
sensitivity with respect to Clostridium difficile [3]: good sensitivity
Co = coloration [4]: 6/17
Gr = growth [4]: 17/17
